Source: patent US20230331655A1, “HYDROXYN[…] AND METHODS OF USE THEREOF” (UNIVERSITY OF MARYLAND, BALTIMORE, priority 2020, published 2023)
“Also recorded” adds a separate entry of the source.

Columns and labels:
[1] = test system: Male C57BL/6J mice; assay: high-dose morphine conditioned-place preference in stress-naive mice; type: in vivo, mouse; settings: single 10 mg/kg i.p., morphine 5 mg/kg
Description: (§1) Animals: Male C57BL/6J mice (8 weeks old, Jackson laboratories) were kept in a temperature and humidity-controlled environment and maintained in a 12:12 hr light/dark cycle (lights on at 7:00 AM). Mice were singly-housed for all the studies due to increased aggression following opioid administration and were randomly assigned to treatment groups.
(§2) Drugs: (2R,6R)-HNK hydrochloride was synthesized and characterized. Absolute and relative stereochemistry for (2R,6R)-HNK was confirmed by small molecule x-ray crystallography. For the intraperitoneal injections, drugs were dissolved in 0.9% saline and given in a volume of 5 ml/kg.
Morphine conditioned-place preference: The conditioned-place preference (CPP) apparatus consisted of a rectangular three-chambered box (40 cm length×30 cm width×35 cm height; Stoelting Co., Wood Dale, IL, USA) comprised of two equal sized end-chambers (20 cm×18 cm×35 cm) and a central chamber (20 cm×10 cm×35 cm). […] The CPP protocol consisted of a pre-conditioning phase, eight conditioning sessions and a post-conditioning test. […]
Conditioning phase (Days 3-6): During the morning sessions of the conditioning phase, saline was administered and mice were placed in their non-opioid assigned compartment for 40 min. […] Time spent in each compartment was measured during both pre- and post-conditioning sessions using TopScan v2.0 (CleverSys, Inc, VA, USA).

[2] = test system: Male C57BL/6J mice; assay: naloxone-precipitated morphine withdrawal conditioned-place aversion; type: in vivo, mouse; settings: 10 mg/kg i.p. 10 min before naloxone 1 mg/kg; morphine 10 mg/kg
Description: as §1, §2
Precipitated morphine place aversion: The conditioned-place aversion (CPA) protocol was performed in a rectangular three-chambered box (40 cm length×30 cm width×35 cm height; Stoelting Co., Wood Dale, IL, USA) comprised of two equal sized end-chambers (20 cm×18 cm×35 cm) and a central chamber (20 cm×10 cm×35 cm). […] The CPA protocol consisted of a pre-conditioning phase, four saline/morphine administration days in their home cages, a conditioning phase following morphine precipitated withdrawal in the CPA apparatus and a post-conditioning test. […] Time spent in each compartment was measured during both pre- and post-conditioning sessions using TopScan v2.0 (CleverSys, Inc, VA, USA).

[3] = test system: Male C57BL/6J mice; assay: sub-threshold social defeat stress in mice previously exposed to morphine; type: in vivo, mouse
Description: as §1
Drugs: (2R,6R)-HNK hydrochloride was synthesized and characterized. Absolute and relative stereochemistry for (2R,6R)-HNK was confirmed by small molecule x-ray crystallography. For the intraperitoneal injections, drugs were dissolved in 0.9% saline and given in a volume of 5 ml/kg. […]
Social interaction test: Following the sub-threshold social defeat stress, on day 16, test mice were screened for susceptibility in a social interaction/avoidance choice test. […] The time spent interacting (nose within close proximity of the cage) with the “stranger” mouse versus the empty cage was analyzed using TopScan video tracking software (CleverSys, Reston, Virginia). % Social Interaction was calculated as the time spent interacting with stranger divided by the total time interacting with the end-chamber cages×100.
Sucrose preference: Following the social interaction test, mice were assessed for sucrose preference in their home cages. […]

[4] = 10 mg/kg, i.p.; cited from earlier work
[5] = test system: mice; assay: overt adverse effects after oral administration; type: in vivo, mouse
[6] = oral bioavailability in mice; settings: mouse, in vivo

SMILES: N[C@@]1(c2ccccc2Cl)CCC[C@@H](O)C1=O [(2R,6R)-HNK, (2R,6R)-hydroxynorketamine]
- development of high-dose morphine CPP [1]: did not prevent
- naloxone-induced conditioned-place aversion in morphine-dependent mice [2]: prevents conditioned-place aversion; also recorded: completely prevented
- stress susceptibility phenotypes / emotional deficits (social interaction, sucrose preference, female urine sniffing, untorn nestlet weight) ([3]; 10 mg/kg i.p. 2 hours after sub-threshold social defeat, mice previously exposed to morphine 10 mg/kg): reverses emotional deficits; also recorded: reversed stress susceptibility phenotypes
- reinstatement of maladaptive behaviors after brief re-exposure to stress ([3]; 10 mg/kg i.p. after the first defeats, 1 min re-exposure): prevents reinstatement
- estimated concentration in brain tissue [4]: < 20 µmol/kg
- estimated concentration in the extracellular hippocampal space [4]: < 10 µM
- fold higher than doses required for antidepressant-relevant effects (dose without overt adverse effects) [5]: at least 9 fold
- oral doses without overt adverse effects [5]: up to 450 mg/kg
- bioavailability [6]: ~50%
